Reference: US20240175019A1, “Skeletal Muscle Delivery Platforms and Methods of Use” (Arrowhead Pharmaceuticals, Inc., priority 2020, published 2024)
Oligonucleotides are written 5' to 3', each unit as a sugar letter and its base; * is a phosphorothioate linkage, no mark a phosphodiester; rarer units and linkages stand in square brackets, end groups in braces. Plain capitals give the bases only. {NH2-C6} = C6 amine reactive group for conjugation; {Alk-cyHex} = alkyne-cyclohexyl conjugation group; [invAb] = inverted abasic deoxyribose residue; [C6-SS-C6] = C6-disulfide-C6 linker; d = 2'-deoxy (DNA); m = 2'-O-methyl; f = 2'-fluoro

system: myostatin mRNA; assay: MSTN expression in triceps of mice by qPCR TaqMan assay (Example 7); type: in vivo; conditions: Day 22, mice, 3 mg/kg single injection on Day 1, n=4
Protocol: On Study Day 1, mice were injected with either isotonic saline (vehicle control) or 3 mg/kg (mpk) of RNAi agent formulated in isotonic saline according to the following dosing Groups:
The RNAi agents in Example 7 were synthesized having nucleotide sequences directed to target the MSTN gene, and groups 1 and 3 included a functionalized amine reactive group (NH2-C6) at the 5′ terminal end of the sense strand to facilitate conjugation to L4 which could then be conjugated to the small molecule targeting ligand Compound 45b. Group 2 included an (Alk-cyHex)s (see Table 28 for structure details) which was conjugated to the small molecule targeting ligand Compound 45b. The myostatin RNAi agents further included a PEG48+C22 PK/PD modulator, which was linked to the 3′ end of the sense strand.
Four (4) mice were dosed in each Group (n=4). Mice were sacrificed on study day 22, and total myostatin mRNA was isolated from the triceps. Triceps were harvested from right front limb. Each sample was snap-frozen in percellys tubes and stored in a −80° C. freezer until assays were completed. Relative MSTN expression was determined by qPCR TaqMan Assay on muscle tissue.

| Substance | Average relative MSTN expression, Relative Expression |
| --- | --- |
| AD06326: AS: usGfsusUfaCfagcaaGfaUfcAfuGfgCfsc; SS: (NH2-C6)s(invAb)sggccaugaUfCfUfugcuguaacas(invAb)(C6-SS-C6)dT (antisense mU*fG*mU*fUmAfCmAmGmCmAmAfGmAfUmCfAmUfGmGfC*mC; sense {NH2-C6}*[invAb]*mGmGmCmCmAmUmGmAfUfCfUmUmGmCmUmGmUmAmAmCmA*[invAb][C6-SS-C6]dT; siRNA; Compound 45b ligand via L4 on sense 5' amine, PEG48+C22 at sense 3') | 0.296 |
| AD06916: AS: usGfsusUfaCfagcaaGfaUfcAfuGfgCfsc; SS: (NH2-C6)s(invAb)sggccaugaUfCfUfugcuguaacas(invAb)s(C6-SS-C6)dT (antisense mU*fG*mU*fUmAfCmAmGmCmAmAfGmAfUmCfAmUfGmGfC*mC; sense {NH2-C6}*[invAb]*mGmGmCmCmAmUmGmAfUfCfUmUmGmCmUmGmUmAmAmCmA*[invAb]*[C6-SS-C6]dT; siRNA; Compound 45b ligand via L4 on sense 5' amine, PEG48+C22 at sense 3') | 0.295 |
| AD06912: AS: usGfsusUfaCfagcaaGfaUfcAfuGfgCfsc; SS: (Alk-cyHex)s(invAb)sggccaugaUfCfUfugcuguaacas(invAb)(C6-SS-C6)dT (antisense mU*fG*mU*fUmAfCmAmGmCmAmAfGmAfUmCfAmUfGmGfC*mC; sense {Alk-cyHex}*[invAb]*mGmGmCmCmAmUmGmAfUfCfUmUmGmCmUmGmUmAmAmCmA*[invAb][C6-SS-C6]dT; siRNA; Compound 45b ligand on sense 5' Alk-cyHex, PEG48+C22 at sense 3') | 0.253 |
